Experimental data: patent publication US10005735B2, “Inhibitors of RPN11” (California Institute of Technology, priority 2015, dated 2018)

Key:
Csn5 = Csn5 (Homo sapiens (Human), UniProt Q92905); assay: Csn5 activity assay (fluorescence polarization, SCF^skp2-Nedd8OG, COP9 Signalosome Complex); assay type: biochemical; settings: Table 2
Experimental: Csn5 Activity Assay. […] In brief, a fluorescent substrate termed SCF^skp2-Nedd8OG was produced to measure CSN5 activity in vitro. This assay measures the decrease in fluorescence polarization due to the decrease in apparent molecular weight of Oregon Green (OG) fluorophore (from the ˜175 kDa substrate to ˜9 kDa Nedd8OG) as a result of Csn5-mediated cleavage of the isopeptide bond that links Nedd8OG to SCF^Skp2. The assay was performed in a low-volume 384 well solid black plate comprising equal volumes of compound, substrate (SCF^skp2-Need8OG) and enzyme (purified COP9 Signalosome Complex, CSN). Fluorescence polarization was recorded using the same setting as for the Rpn11 activity assay.

AMSH = AMSH (Homo sapiens (Human), UniProt O95630); assay: AMSH activity assay (DiUb^K63TAMRA cleavage, fluorescence); assay type: biochemical; settings: Table 2
AMSH, sequence (O95630 whole entry): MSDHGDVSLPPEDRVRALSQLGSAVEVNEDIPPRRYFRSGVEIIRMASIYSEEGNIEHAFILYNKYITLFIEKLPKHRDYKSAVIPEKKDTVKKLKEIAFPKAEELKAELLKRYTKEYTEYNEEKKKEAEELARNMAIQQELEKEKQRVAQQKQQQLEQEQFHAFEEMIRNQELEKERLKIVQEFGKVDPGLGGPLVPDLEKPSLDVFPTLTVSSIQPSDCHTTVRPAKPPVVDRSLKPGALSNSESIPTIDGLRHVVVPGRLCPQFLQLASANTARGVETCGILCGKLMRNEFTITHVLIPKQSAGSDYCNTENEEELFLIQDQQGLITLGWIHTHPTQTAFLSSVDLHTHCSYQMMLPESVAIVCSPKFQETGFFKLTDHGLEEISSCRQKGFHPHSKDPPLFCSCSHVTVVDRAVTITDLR
Description: AMSH Activity Assay. AMSH is known to selectively cleave ubiquitin chains in which the ubiquitins are joined via K63 of the proximal ubiquitin linked by an isopeptide bond to the carboxy terminus of the distal ubiquitin. […] In brief, DiUb^K63TAMRA was labeled with quench pairs TAMRA/QXL.

Rpn11 [1] = target: T1, Rpn11 (Homo sapiens (Human), UniProt O00487); assay: Rpn11 activity assay (fluorescence polarization, Ub4-pepOG cleavage by 26S proteasome); assay type: biochemical; settings: does not inhibit Csn5 or AMSH with the same potency as Rpn11
T1 sequence (O00487 whole entry, looked up): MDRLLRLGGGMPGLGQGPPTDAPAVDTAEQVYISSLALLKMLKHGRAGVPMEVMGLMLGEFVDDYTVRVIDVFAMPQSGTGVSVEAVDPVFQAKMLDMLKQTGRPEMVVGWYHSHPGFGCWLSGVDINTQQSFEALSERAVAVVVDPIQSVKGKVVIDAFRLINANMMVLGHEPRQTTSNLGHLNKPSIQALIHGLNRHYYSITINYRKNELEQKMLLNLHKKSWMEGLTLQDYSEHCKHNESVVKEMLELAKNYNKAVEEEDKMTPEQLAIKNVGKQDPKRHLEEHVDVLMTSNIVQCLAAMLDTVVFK

Ub^G76V-GFP = assay: Reporter degradation assay in Hela cells expressing Ub^G76V-GFP; assay type: cell-based; settings: after MG132 removal, cycloheximide chase
Experimental: Characterization of the Compound Activity in Cells. […] After 4 hours, MG132 was removed and a cycloheximide (CHX) chase was initiated +/− different concentrations of test compound and the rate of reporter degradation was evaluated by monitoring GFP fluorescence by high throughput microscopy. The rate of fluorescence decrease was normalized to DMSO control and analyzed using does-response equation.

Rpn11 [2] = target: T1, Rpn11; assay: Rpn11 activity assay (fluorescence polarization, Ub4-pepOG cleavage by 26S proteasome); assay type: biochemical; settings: Table 2; 1 mM DTT in assay reduces disulfides to monomeric active species
Description: Candidate compounds according to embodiments of the present invention were synthesized as described herein. […] In brief, this Rpn11 bioassay employs a fluorescent polarization readout based on the ability of the 26S proteasome to cleave the protein substrate including four tandem ubiquitin proteins fused to a peptide having a unique cysteine labeled with a fluorophore. Cleavage of this substrate by Rpn11 at the junction between the fourth ubiquitin and the peptide, releases the low molecular weight fluorescent peptide. Accordingly, inhibition of fluorescence correlates with inhibition of Rpn11. Inhibition is reported as the half maximal inhibitory concentration (IC50) for the candidate compound.
Rpn11 Activity Assay. […] In brief, in order to measure the Rpn11 activity, a synthetic peptide substrate, termed Ub4-pepOG, was engineered. […] Peptide substrate Ub4-pepOG consists of only 30 amino acids and therefore the decrease of polarization is mainly from deubiquitination but not the proteolysis of the peptide. Fluorescence polarization assay was performed in a low-volume 384 well solid black plate where the components are added in the follow sequence: 1) 5 μl compound in 3% DMSO or 3% DMSO control 2) 5 μl 26S proteasome (Enzo Life Sciences Inc, NY). […] Fluorescence polarization is measured using a PHERAstar (BMG labtech, Ortenberg, Germany) plate reader with excitation of 480 nm and emission of 520 nm filter set. […] Rpn11 activity was normalized to DMSO control and fitted using does-response curve.

Structure (SMILES)	IC50 (Csn5) [µM]	IC50 (AMSH) [µM]	specificity for Rpn11 versus Csn5 and/or AMSH (in words) (Rpn11 [1])	IC50 (Ub^G76V-GFP; Homo sapiens) [µM]	IC50 (Rpn11 [2]) [µM]	IC50 (Ub^G76V-GFP) [µM]
O=C(NCc1nccs1)c1cnc2c(SSc3cccc4cc(C(=O)NCc5nccs5)cnc34)cccc2c1 [Compound 9, 8,8′-Disulfanediylbis(N-(thiazol-2-ylmethyl)quinoline-3-carboxamide)]	23	7.8	specific inhibitors of Rpn11	–	–	–
O=C(NCc1ccc(F)cc1)c1cnc2c(SSc3cccc4cc(C(=O)NCc5ccc(F)cc5)cnc34)cccc2c1 [Compound 17, 8,8′-Disulfanediylbis(N-(4-fluorobenzyl)quinoline-3-carboxamide)]	18	0.85	specific inhibitors of Rpn11	> 10	–	–
NC(=O)c1cnc2c(SSc3cccc4cc(C(N)=O)cnc34)cccc2c1 [Compound 1, 8,8′-Disulfanediylbis(quinoline-3-carboxamide)]	15	1.2	specific inhibitors of Rpn11	1.2	1	–
O=C(NCc1cccnc1)c1cnc2c(SSc3cccc4cc(C(=O)NCc5cccnc5)cnc34)cccc2c1 [Compound 14, 8,8′-Disulfanediylbis(N-(pyridin-3-ylmethyl)quinoline-3-carboxamide)]	128	3.52	–	> 10	3.1	–
O=C(NCCc1nccs1)c1cnc2c(SSc3cccc4cc(C(=O)NCCc5nccs5)cnc34)cccc2c1 [Compound 12, 8,8′-Disulfanediylbis(N-(2-(thiazol-2-yl)ethyl)quinoline-3-carboxamide)]	30	–	specific inhibitors of Rpn11	0.57	–	–
O=C(NCCc1cccs1)c1cnc2c(SSc3cccc4cc(C(=O)NCCc5cccs5)cnc34)cccc2c1 [Compound 11, 8,8′-Disulfanediylbis(N-(2-(thiophen-2-yl)ethyl)quinoline-3-carboxamide)]	4	1.3	specific inhibitors of Rpn11	–	0.3	–
O=C(NCCc1ccco1)c1ccnc2c(SSc3cccc4c(C(=O)NCCc5ccco5)ccnc34)cccc12 [Compound 26, 8,8′-disulfanediylbis(N-(2-(furan-2-yl)ethyl)quinoline-4-carboxamide)]	8	2.9	specific inhibitors of Rpn11	1.6	1	–
O=C(Nc1nccs1)c1cnc2c(SSc3cccc4cc(C(=O)Nc5nccs5)cnc34)cccc2c1 [Compound 5, 8,8′-Disulfanediylbis(N-(thiazol-2-yl)quinoline-3-carboxamide)]	32	3.3	specific inhibitors of Rpn11	–	–	–
COc1ccc(CNC(=O)c2cnc3c(SSc4cccc5cc(C(=O)NCc6ccc(OC)cc6)cnc45)cccc3c2)cc1 [Compound 19, 8,8′-Disulfanediylbis(N-(4-methoxybenzyl)quinoline-3-carboxamide)]	0.5	0.6	specific inhibitors of Rpn11	> 10	–	–
O=C(NCc1ccncc1)c1cnc2c(SSc3cccc4cc(C(=O)NCc5ccncc5)cnc34)cccc2c1 [Compound 15, 8,8′-Disulfanediylbis(N-(pyridin-4-ylmethyl)quinoline-3-carboxamide)]	7	0.5	specific inhibitors of Rpn11	–	0.2	> 10
O=C(NCc1ccc(C(F)(F)F)cc1)c1cnc2c(SSc3cccc4cc(C(=O)NCc5ccc(C(F)(F)F)cc5)cnc34)cccc2c1 [Compound 18, 8,8′-Disulfanediylbis(N-(4-(trifluoromethyl)benzyl)quinoline-3-carboxamide)]	> 100	3.4	specific inhibitors of Rpn11	–	0.7	> 10
O=C(NCCc1cccs1)c1ccnc2c(SSc3cccc4c(C(=O)NCCc5cccs5)ccnc34)cccc12 [Compound 24, 8,8′-disulfanediylbis(N-(2-(thiophen-2-yl)ethyl)quinoline-4-carboxamide)]	7.3	1	specific inhibitors of Rpn11	–	0.7	1.1
O=C(NCc1ccccn1)c1cnc2c(SSc3cccc4cc(C(=O)NCc5ccccn5)cnc34)cccc2c1 [Compound 13, 8,8′-Disulfanediylbis(N-(pyridin-2-ylmethyl)quinoline-3-carboxamide)]	56.7	16.7	–	> 10	3.9	–
O=C(NCc1ccccc1)c1cnc2c(SSc3cccc4cc(C(=O)NCc5ccccc5)cnc34)cccc2c1 [Compound 16, 8,8′-Disulfanediylbis(N-benzylquinoline-3-carboxamide)]	11	15	–	> 10	1.1	–
O=C(NCCN1CCOCC1)c1cnc2c(SSc3cccc4cc(C(=O)NCCN5CCOCC5)cnc34)cccc2c1 [Compound 22, 8,8′-Disulfanediylbis(N-(2-morpholinoethyl)quinoline-3-carboxamide)]	99	25.4	–	> 10	6.4	–
